Laboratory results as given in patent US6420430B1, “Use of inhibitors of the sodium-hydrogen exchanger for preparing a medicament for preventing age-related disorders, and for prolonging life” (Aventis Pharma Deutschland GmbH, priority 1998, dated 2002).
“Also recorded” adds a separate entry of the source.

How the values were obtained:
[1] = system: WKY rats; assay: Histomorphological examination of organs (heart, kidneys, skeletal muscles, eyes, liver); type: in vivo, rat; settings: for age-related histomorphological organ changes (connective tissue in heart muscle, muscular dystrophy, tubulointerstitial kidney damage, retina atrophy): life-long treatment, WKY rats
Excerpt: The effect of a life-long treatment of young normotensive Wistar-Kyoto rats (WKY rats) with the sodium-hydrogen exchanger (“NHE”) inhibitor cariporide was investigated. In addition to the primary end point, the lifespan, surrogate parameters were studied and measured, for example the hypertrophy of the left ventricle of the heart, heart function, metabolism and endothelial function. In addition, organs, such as heart, kidneys, skeletal muscles and eyes, were examined histomorphologically. In accordance with the method described by Langendorff, the hearts were perfused with an oxygen-saturated (95% O2, […]), non-circulating Krebs-Henseleit solution of the following composition (mmol/l): NaCl, 118; KCl, 4.7; CaCl2, 2.5; MgSO4, 1.6; NaHCO3, 24.9; KH2PO4, 1.2; glucose, 5.5; Na-pyruvate, 2.0, using a perfusion pressure of 60 mm Hg. The pressure in the left ventricle and the pulse frequency of the heart were measured using a balloon catheter. The coronary blood flow was determined using an electromagnetic flow gage. After a washing phase of 5 minutes, 1 ml of the coronary effluent was taken off for measuring the lactate concentrations and the lactate dehydrogenase and creatine kinase activities. The weights of the entire heart and the weights of the left and the right ventricle were then determined. The left ventricle was fixed in 10% strength neutral buffered formalin solution and embedded in paraffin for light-microscopic examination.

[2] = system: isolated thoracic aorta of WKY rats; assay: Vessel function on isolated rings of the thoracic aorta: endothelium-dependent relaxation by acetylcholine after KCl precontraction; type: in vivo, rat; settings: KCl-precontracted aorta rings, 30-month-old rats
Procedure: The interim analysis was carried out after 80% of the placebo-treated animals had died; this was the case after 30 months. 10 animals of each group were selected at random and anesthetized (hexobarbital, 80 mg·kg^−1, i.p.). Blood samples were then taken, and the thoracic aortae and the hearts were prepared and biochemically and/or functionally examined (Linz et al., 1997). The aorta was introduced into Tyrode's solution and freed from the surrounding fatty tissue. Segments of 2 mm were then sliced into rings, and these rings were introduced in a temperature-controlled (37° C.) organ bath (10 ml) with Tyrode's solution (composition in mol/l: NaCl 136.9; NaHCO3 11.9; KCl 2.7; CaCl2 0.5; MgCl2 2.0; NaHPO4 0.4; glucose 5.5; pH=7.4), and 95% O2/5% CO2 was bubbled through the solution. Each ring was mounted vertically between two fine steel clamps. The upper clamp was connected to a force sensor. The force signal was recorded using a computer-assisted biosignal analyzer. The aorta rings were suspended using a passive tension of 4.9 mN. After an adaptation period of one hour, the rings were contracted using potassium chloride (20 mmol/l). After a plateau had been reached, increasing concentrations of acetylcholine of 10^−8, 10^−7, 10^−6 and 10^−5 mol/l were added to the bath, triggering an endothelium dependent relaxation.

[3] = system: WKY rats; assay: Interim analysis after 30 months: organ weights (heart, ventricles, kidneys, spleen); type: in vivo, rat
Procedure: (§1) The interim analysis was carried out after 80% of the placebo-treated animals had died; this was the case after 30 months. 10 animals of each group were selected at random and anesthetized (hexobarbital, 80 mg·kg^−1, i.p.). Blood samples were then taken, and the thoracic aortae and the hearts were prepared and biochemically and/or functionally examined (Linz et al., 1997). In accordance with the method described by Langendorff, the hearts were perfused with an oxygen-saturated (95% O2, […]), non-circulating Krebs-Henseleit solution of the following composition (mmol/l): NaCl, 118; KCl, 4.7; CaCl2, 2.5; MgSO4, 1.6; NaHCO3, 24.9; KH2PO4, 1.2; glucose, 5.5; Na-pyruvate, 2.0, using a perfusion pressure of 60 mm Hg. The pressure in the left ventricle and the pulse frequency of the heart were measured using a balloon catheter. The coronary blood flow was determined using an electromagnetic flow gage. After a washing phase of 5 minutes, 1 ml of the coronary effluent was taken off for measuring the lactate concentrations and the lactate dehydrogenase and creatine kinase activities. The weights of the entire heart and the weights of the left and the right ventricle were then determined. The left ventricle was fixed in 10% strength neutral buffered formalin solution and embedded in paraffin for light-microscopic examination.

[4] = system: normotensive Wistar-Kyoto rats (WKY rats); assay: Life-long treatment of normotensive WKY rats with cariporide via the feed: lifespan, cumulative survival rate, onset of age-related cancer; type: in vivo, rat
Excerpt: The effect of a life-long treatment of young normotensive Wistar-Kyoto rats (WKY rats) with the sodium-hydrogen exchanger (“NHE”) inhibitor cariporide was investigated. In addition to the primary end point, the lifespan, surrogate parameters were studied and measured, for example the hypertrophy of the left ventricle of the heart, heart function, metabolism and endothelial function. In addition, organs, such as heart, kidneys, skeletal muscles and eyes, were examined histomorphologically.
Ninety one-month-old WKY rats were randomized into two groups of placebo-treated (n=45) and cariporide-treated (n=45) rats. Cariporide was administered via the feed (active compound content 0.3%).
Male WKY rats were purchased from Møllegrad Denmark. The animals (3 per cage) were kept under standardized conditions with respect to temperature, atmospheric humidity and light. The rats had free access to a standard diet (Altromin® maintenance diet 1320, sodium content 0.2%) and received drinking water ad libitum. All experiments were carried out in accordance with the German Law on the Protection of Animals.
Ninety one-month-old animals were randomized into two groups of in each case 45 animals. After randomization, placebo and cariporide were administered to the rats via the drinking water and the feed, respectively, a proportion of 0.3% of the feed ensuring complete blockage of the NHE for 24 hours.
At intervals of 3 months, the body weight was determined and the blood pressure was measured using the tail plethysmography method. Events of death were registered after they had occurred.
All data are stated as mean±standard deviations. The survival data were analyzed in accordance with Kaplan-Meier, followed by a Mantel-Cox log-rank test. Furthermore, variance analysis (ANOVA) followed by a Student-Newman-Keuls test were employed. Null hypotheses were rejected at p<0.05.

[5] = system: isolated heart of WKY rats; assay: Function and metabolism of the isolated heart (Langendorff) after 30 months of treatment; type: in vivo, rat; settings: n = 10 per group
Procedure: as §1

[6] = system: hypertensive rats; settings: hypertensive rats only; Circulation 1997; 96: 3164-3172; cited from earlier work

CC(C)c1ccc(C(=O)N=C(N)N)cc1S(C)(=O)=O.CS(=O)(=O)O [Cariporide, cariporide]
histomorphology of the livers ([1]; compared with control animals): unchanged | age-related histomorphological organ changes (connective tissue in heart muscle, muscular dystrophy, tubulointerstitial kidney damage, retina atrophy) [1]: drastically reduced | age-related histomorphological organ changes (connective tissue in heart muscle, muscular dystrophy, tubulointerstitial kidney damage, retina atrophy) ([1]; listed as cariporide): reduced drastically or prevented completely | Vessel function on the aorta (relaxation in %) ([2]; ACh 10^−5 mol/l): 95 ± 10% | Vessel function on the aorta (relaxation in %) ([2]; ACh 10^−6 mol/l): 85 ± 8 % | Vessel function on the aorta (relaxation in %) ([2]; ACh 10^−7 mol/l): 50 ± 6 % | Vessel function on the aorta (relaxation in %) ([2]; ACh 10^−8 mol/l): 5 ± 2% | Heart weight, Heart (total) ([3]; n = 10/group): 235 ± 10 mg/100 g of body weight | Heart weight, Left ventricle ([3]; n = 10/group): 193 ± 8 mg/100 g of body weight | Heart weight, Right ventricle ([3]; n = 10/group): 36 ± 2 mg/100 g of body weight | age-related hypertrophy of the heart ([3]; versus placebo-treated animals): prevented | Survival rate in percent ([4]; 19 months): 100% | Survival rate in percent ([4]; 20 months): 100% | Survival rate in percent ([4]; 21 months): 100% | Survival rate in percent ([4]; 22 months): 100% | Survival rate in percent ([4]; 23 months): 97% | Survival rate in percent ([4]; 24 months): 97% | Survival rate in percent ([4]; 25 months): 97% | Survival rate in percent ([4]; 26 months): 97% | Survival rate in percent ([4]; 27 months): 97% | Survival rate in percent ([4]; 28 months): 97% | Survival rate in percent ([4]; 29 months): 92% | Survival rate in percent ([4]; 30 months): 89% | Survival rate in percent ([4]; 31 months): 80% | Survival rate in percent ([4]; 32 months): 75% | Survival rate in percent ([4]; 33 months): 67% | Survival rate in percent ([4]; 34 months): 59% | Survival rate in percent ([4]; 35 months): 49% | Survival rate in percent ([4]; 36 months): 38% | Survival rate in percent ([4]; 37 months): 28% | Survival rate in percent ([4]; 38 months): 17% | Survival rate in percent ([4]; 39 months): 10% | maximum lifespan ([4]; life-long treatment, 0.3% in feed, WKY rats, placebo 30 months): 39 months | onset of age-related cancer ([4]; life-long treatment, WKY rats, listed as cariporide): delayed onset; also recorded: delayed significantly | life extension ([4]; maximum lifespan versus placebo): 30% | CF (coronary flow) [5]: 34.6 ± 0.7 mL/min/g | CK (creatine kinase in the coronary effluent) [5]: 0.20 ± 0.02 mU/min/g heart wwt | HR [5]: 182 ± 7 beats/min | LDH (lactate dehydrogenase in the coronary effluent) [5]: 0.42 ± 0.02 mU/min/g heart wwt | LVP (pressure in the left ventricle) [5]: 111.5 ± 3.9 mm Hg | Lactate in the coronary effluent [5]: 2.5 ± 0.13 μmol/min/g heart wwt | dP/dtmax (constriction rate of the left ventricle) [5]: 4432 ± 121 mm Hg/s

CCOC(=O)[C@H](CCc1ccccc1)N[C@@H](C)C(=O)N1[C@H](C(=O)O)C[C@@H]2CCC[C@@H]21 [ramipril]
effect on lifespan [6]: life-prolonging effect
